The results in this text go back to ChEMBL document CHEMBL1201862, “PubChem BioAssay data set” (2004).

Test systems include A498; ACHN; CCRF-CEM; COLO 205; DU-145; HCT-15; HOP-62; Hs-578T; K562; KM12; M14; MDA-MB-231; MDA-N; NCI-H226; NCI-H460; OVCAR-5; SF-268; T47D; TK-10; UACC-62.
What all share (assay): DTP human tumour cell line panel, 48 h

Each structure is given as a SMILES string.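 Following 48 hours of exposure in 96-well plates, responses at five concentrations were used to interpolate endpoints linearly. Here, GI50 denotes the concentration required for 50% inhibition of growth.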 The source made the active and inactive calls. Rule as the data show it: active = GI50 up to about 1.1 µM and inactive = higher.

`COC(=O)C1C=CN(N(C)C)C2=C1C(=O)c1c(O)cccc1C2=O` (stereo not given): the GI50 with A498 is 2.81 µM (inactive); in the test with ACHN, 3.37 µM (inactive); with CCRF-CEM it was 2.22 µM (inactive); with COLO 205, 1.5 µM (inactive); in the test with DU-145, 1.58 µM (inactive); in the test on HCT-15, 1.51 µM. Besides, the GI50 with HOP-62 was 2.68 µM (inactive); in the test on Hs-578T, 2.69 µM (inactive); with K562 it was 3.09 µM (inactive); in the test with KM12 it was 2.07 µM (inactive); in the test on M14, 1.69 µM (inactive); in the test on MDA-MB-231, 1.89 µM (inactive). Besides, the GI50 in the test with MDA-N is 0.422 µM (active); with NCI-H226 it was 1.87 µM (inactive); with NCI-H460 it was 1.04 µM (active); in the test on OVCAR-5, 2.42 µM (inactive); with SF-268, 3.83 µM (inactive); in the test on T47D, 2.32 µM (inactive). Moreover, the GI50 in the test on TK-10 is 4.27 µM (inactive); in the test on UACC-62, 1.04 µM (active).

On to `CC12CC(C#N)(C#N)C(C#N)(CO1)C(=N)O2` (stereo not given), for which the GI50 with A498 was > 100 µM (inactive); in the test with ACHN it was > 100 µM (inactive); with CCRF-CEM, 26.9 µM (inactive); in the test with COLO 205, 37.8 µM (inactive); in the test on DU-145 it was > 100 µM (inactive); in the test on HCT-15, 40.6 µM. Moreover, the GI50 with Hs-578T was 27.7 µM (inactive); with K562, 75.7 µM (inactive); in the test with KM12, > 100 µM (inactive); in the test on M14 it was > 100 µM (inactive); in the test with MDA-MB-231, > 100 µM (inactive); in the test with MDA-N it was > 100 µM (inactive). The GI50 with NCI-H226 is > 100 µM (inactive); with NCI-H460, 63.7 µM (inactive); in the test on OVCAR-5 it was > 100 µM (inactive); in the test on SF-268 it was > 100 µM (inactive); in the test with T47D it was > 100 µM (inactive); with TK-10, > 100 µM (inactive). In addition, in the test with UACC-62, the GI50 is 24.9 µM (inactive).

As to `C=CC(O)(CBr)CCC(Br)C(C)(C)Cl` (stereo not given), the GI50 in the test on A498 was > 10 µM (inactive); in the test on ACHN, > 10 µM (inactive); in the test on CCRF-CEM, > 10 µM (inactive); in the test with COLO 205, > 10 µM (inactive); with DU-145 it was > 10 µM (inactive); with HCT-15 it was more than 10 µM. The GI50 in the test with HOP-62, with Hs-578T, in the test on K562, with KM12, with M14 and in the test on MDA-MB-231 was > 10 µM (inactive) throughout. Besides, the GI50 in the test with MDA-N, with NCI-H226, in the test with NCI-H460, with OVCAR-5, in the test with SF-268 and in the test on T47D was > 10 µM (inactive) each time. In addition, the GI50 in the test with TK-10 is > 10 µM (inactive).

For the molecule `CSc1c(C#N)c(S)[nH]c(=O)c1C#N`, the GI50 in the test on A498 is 38.2 µM (inactive); in the test with CCRF-CEM it was 55.5 µM (inactive); with COLO 205, 31.9 µM (inactive); in the test with DU-145 it was 48 µM (inactive); in the test on HCT-15, 44.4 µM; in the test with Hs-578T it was 24.2 µM (inactive). Besides, the GI50 was 18.1 µM (inactive) in the test on K562; 65.8 µM (inactive) in the test on KM12; 24.5 µM (inactive) in the test with M14; 42.8 µM (inactive) in the test on MDA-MB-231; 24.4 µM (inactive) with MDA-N; 30.3 µM (inactive) with NCI-H226. Further, the GI50 in the test on NCI-H460 was 97.7 µM (inactive); in the test on OVCAR-5, > 100 µM (inactive); with SF-268, 32.7 µM (inactive); in the test on T47D it was 24.9 µM (inactive); in the test on TK-10 it was 23.2 µM (inactive); in the test with UACC-62, 21.2 µM (inactive).

For the molecule `O=C(Nc1nnc(-c2ccccc2)o1)C(SC(=S)N1CCOCC1)c1ccccc1` (stereo not given), the GI50 with A498 is 23.8 µM (inactive); with ACHN it was 20.9 µM (inactive); in the test with CCRF-CEM it was 5.75 µM (inactive); with COLO 205, 35.6 µM (inactive); in the test with DU-145 it was 37.2 µM (inactive); in the test with HCT-15 it was 5.43 µM. For the same molecule, the GI50 in the test on HOP-62 is 24.1 µM (inactive); in the test with Hs-578T it was 86.3 µM (inactive); in the test on K562, 19.5 µM (inactive); with KM12, 34.3 µM (inactive); with M14 it was 20.4 µM (inactive); with MDA-MB-231, 42 µM (inactive). The GI50 is 26.3 µM (inactive) in the test on MDA-N; 34.4 µM (inactive) in the test on NCI-H226; 10.1 µM (inactive) in the test with NCI-H460; 25.6 µM (inactive) in the test on OVCAR-5; 39.8 µM (inactive) with T47D; 51.6 µM (inactive) in the test with TK-10.

For `CO/C(N)=C(C#N)/N=C/c1ccc2ccccc2c1`, the GI50 was 33 µM (inactive) in the test on A498; 15.9 µM (inactive) in the test with ACHN; 24.8 µM (inactive) in the test with CCRF-CEM; 17.9 µM (inactive) with COLO 205; > 100 µM (inactive) in the test with DU-145; 23.2 µM (inactive) in the test with HOP-62. Also, the GI50 with Hs-578T is 46.7 µM (inactive); in the test on K562, 4.72 µM (inactive); with KM12 it was 23.1 µM (inactive); in the test with MDA-MB-231 it was 19.5 µM (inactive); in the test with MDA-N, 8.41 µM (inactive); in the test on NCI-H226, > 100 µM (inactive). Besides, the GI50 with SF-268 was > 100 µM (inactive); with T47D, 8.73 µM (inactive); with TK-10 it was > 100 µM (inactive); in the test with UACC-62, 3.06 µM (inactive).

Regarding `O=C(Oc1ccccc1)N1c2ccccc2[C@@]23O[C@]24CCC[C@H]3C#C/C=C\C#C[C@H]14`, the GI50 was 14.3 µM (inactive) in the test on A498; 15.7 µM (inactive) in the test on CCRF-CEM; 14.8 µM (inactive) with COLO 205; 1.05 µM (active) in the test on DU-145; 13.2 µM with HCT-15; 12.9 µM (inactive) with HOP-62. The GI50 in the test with Hs-578T is 16.6 µM (inactive); with K562 it was 15.6 µM (inactive); in the test on KM12, 13.6 µM (inactive); with M14, 15.2 µM (inactive); in the test with MDA-MB-231 it was 12.3 µM (inactive); in the test with MDA-N it was 13.6 µM (inactive). The GI50 in the test with NCI-H226 was 17.4 µM (inactive); in the test on NCI-H460, < 0.01 µM (active); with OVCAR-5, 11.8 µM (inactive); with SF-268, 13.6 µM (inactive); in the test with T47D, 6.5 µM (inactive); in the test on TK-10, 19.9 µM (inactive). In the test on UACC-62, the GI50 was 7.48 µM (inactive).

For `Cn1c(COC(=O)NC2CCCCC2)c(COC(=O)NC2CCCCC2)c2ccc3cc(C=O)ccc3c21`, the GI50 was > 100 µM (inactive) in the test with A498; > 100 µM (inactive) with ACHN; > 100 µM (inactive) with CCRF-CEM; > 100 µM (inactive) with COLO 205; > 100 µM (inactive) in the test with DU-145; more than 100 µM in the test with HCT-15. The GI50 was 35.3 µM (inactive) in the test with Hs-578T; > 100 µM (inactive) with K562; > 100 µM (inactive) with KM12; > 100 µM (inactive) in the test on M14; 85.1 µM (inactive) in the test on MDA-MB-231; > 100 µM (inactive) in the test on MDA-N. The GI50 in the test with NCI-H226 was > 100 µM (inactive); with NCI-H460 it was > 10 µM (inactive); in the test with OVCAR-5, > 100 µM (inactive); in the test with SF-268, 37.5 µM (inactive); in the test on T47D it was > 100 µM (inactive); in the test on TK-10 it was > 100 µM (inactive). The GI50 with UACC-62 is > 100 µM (inactive).

On to `Brc1c(C#CCC2CCCCC2)ccc(C#CCC2CCCCC2)c1Br`, for which the GI50 in the test on A498 is > 100 µM (inactive); in the test on ACHN it was > 100 µM (inactive); with CCRF-CEM it was > 100 µM (inactive); in the test with COLO 205, > 100 µM (inactive); with DU-145, > 100 µM (inactive); with HCT-15, more than 100 µM. The GI50 in the test on Hs-578T, in the test on K562, with KM12, with M14, in the test on MDA-MB-231 and in the test with MDA-N was > 100 µM (inactive) each time. The GI50 in the test with NCI-H226, in the test with NCI-H460, with OVCAR-5, with SF-268, with T47D and in the test with TK-10 was > 100 µM (inactive) throughout. In the test with UACC-62, the GI50 was > 100 µM (inactive).

For the molecule `CN(C)c1ccc(C(C#N)N2CCCN(C(C#N)c3ccc(N(C)C)cc3)C2c2ccc(N(C)C)cc2)cc1` (stereo not given), the GI50 in the test on A498 was > 100 µM (inactive); in the test on ACHN, > 100 µM (inactive); with CCRF-CEM it was > 100 µM (inactive); in the test with COLO 205, > 100 µM (inactive); in the test with DU-145 it was > 100 µM (inactive); in the test with HCT-15, more than 100 µM. Moreover, the GI50 in the test with HOP-62, with Hs-578T, in the test with K562, in the test on KM12, in the test on M14 and with MDA-MB-231 was > 100 µM (inactive) in each case. The GI50 in the test on MDA-N, in the test on NCI-H226, in the test on OVCAR-5, with SF-268, in the test with T47D and in the test on TK-10 was > 100 µM (inactive) in each case. Besides, the GI50 in the test on UACC-62 is > 100 µM (inactive).

Take `O=C(CCc1ccc(O)cc1)NCCCNC(=O)CCc1ccc(O)cc1`: the GI50 in the test on A498 is > 100 µM (inactive); with ACHN, > 100 µM (inactive); in the test with CCRF-CEM, > 100 µM (inactive); with COLO 205, > 100 µM (inactive); with DU-145, > 100 µM (inactive); in the test on HCT-15, more than 100 µM. Also, the GI50 in the test with HOP-62, in the test on Hs-578T, with K562, in the test on KM12, with M14 and in the test on MDA-MB-231 was > 100 µM (inactive) in each case. For the same molecule, the GI50 in the test with MDA-N, in the test with NCI-H226, in the test with NCI-H460, in the test on OVCAR-5, in the test with SF-268 and in the test with T47D was > 100 µM (inactive) in each case. The GI50 in the test on UACC-62 is > 100 µM (inactive).
